Source: patent US5759573A, “Cyclodextrin liposomes encapsulating pharmacologic compounds and methods for their use” (DepoTech Corporation, priority 1995, dated 1998)

Columns and labels:
in vivo [1] = conditions: rat
Experimental: Rats were anesthetized with ketamine HCl (90 mg/kg and acetopromazine maleate (2.2 mg/kg, injected intramuscularly) and mounted in a conventional stereotaxic frame. Using a No. 15 blade, a midline cutaneous incision approximately 1 cm in length was made from the occipital crest to just behind the ears. The muscle ligament along the occipital crest at the skull was detached with a scalpel for 4 mm on either side of the midline. Using both the sharp and blunt ends of a periosteal elevator, the muscle from the occipital bone was freed down to the atlanto-occipital membrane. A retractor was placed in the incision to draw the muscle aside and obtain a clear view of the atlanto-occipital membrane. […] The needle was withdrawn, the skin was sutured with 3-0 silk, and the animal was given 10 ml lactated Ringer'solution subcutaneously for hydration.
At appropriate time points after injection, the atlanto-occipital membrane was again exposed under anesthesia and a sample of cerebrospinal fluid ranging from 30 to 60 μl was obtained through a 19-gauge needle. […] The cerebrospinal fluid samples were then kept frozen at -20° C. until analyzed using a high-performanceliquid chromatography (HPLC) system as described below.
After cerebrospinal fluid sampling, the animals were sacrificed with an overdose of ketamine (90 mg/kg) and acetopromazine (20 mg/kg), injected intraperitoneally. Blood samples were obtained via cardiac puncture and thorough exsanguination was performed. […] The calvarium was then exposed and carefully removed with a bone rongeur. The entire content of the cranial compartment was collected by scooping out the exposed brain with a spatula and washing the cranial vault thoroughly with distilled water. The spinal compartment content was then collected separately; the spinal cord was extruded forward into the cranial vault by pushing distilled water rapidly through a 19-gauge needle inserted into the lower lumbar spinal canal at a point 2.5 cm rostral to the origin of the tail. […] The cranial compartment samples were analyzed separately from the spinal canal samples. Both tissue samples were homogenized with water using a Polytron homogenizer.
The homogenized samples of brain or spinal cord were analyzed with HPLC after extraction as described by Alkayal et al. Ther. Drug Monit. 12:191 (1990). Briefly, in a glass centrifuge tube, a 500 μl aliquot of homogenate, 100 μl of theophylline aqueous solution (internal standard, 2.0 mg/ml), 250 μl trichloroacetic acid solution (10% in water), and 250 μl glacial acetic acid were placed and mixed. […] Ethyl acetate organic phase was decanted and evaporated under nitrogen at 60° C. The extracted residue was dissolved in 200 μl of mobile phase and 100 μl of the resulting solution was injected into the HPLC.
The RSTRIP computer program (MicroMath Scientific Software, Salt Lake City, Utah) was used to perform the pharmacokinetics analysis.

L1210 leukemia [2] = assay: Efficacy of single subcutaneous dose in murine L1210 model (increased life span); assay type: in vivo, mouse (BDF1); conditions: L1210, single sc dose on Day 1, increased life span
Description: BDF1 and DBA/2J mice were from Simonsen Laboratories, Gilroy, Calif. The L1210 leukemia was maintained by serial intraperitoneal passage in DBA/2J female mice.
(§1) Five animals were in each group except for the control (given 0.9% NaCl alone), where 10 animals were used. […] Median survival time was used to calculate the "increased life span" (ILS) according to the formula: […]
where T is the median survival time of treated groups and C is the median survival time for control groups.
(§2) The LD50 was calculated after probit transformation.

in vivo [3] = conditions: mouse, sc
Experimental: as §1, §2

L1210 leukemia [4] = assay: Efficacy of single intraperitoneal dose in murine L1210 model (increased life span); assay type: in vivo, mouse (BDF1); conditions: L1210, single ip dose on Day 1, increased life span
Experimental: (§3) There were five mice per group and fifteen mice were used as untreated controls (given 1 ml of 0.9% NaCl solution). The result was expressed as "increased life span".

[5] = Toxicity and therapeutic index of single intraperitoneal dose; set-up: species or system mouse (BDF1); conditions: in vivo; mouse, single ip dose, probit transformation
Experimental: as §3
LD50 was calculated after probit transformation by PHARM/PCS program (MicroComputer Specialists, Philadelphia, Pa.). […] The therapeutic index (TI) for single IP dosage was calculated by the equation: […]

[6] = estimated from studies in vitro; read-out: minimal cytotoxic concentration; cited from earlier work
[7] = cited from earlier work
in vivo [8] = conditions: mouse, sc, 10 mg/kg
Experimental: (§4) Subcutaneous (sc) pharmacokinetic studies were done using male BDF1 mice, weighing 20-25 grams. […] At each time point, 3 animals were sacrificed.
(§5) A full thickness of the abdominal wall tissue, including the entire skin and the underlying peritoneal membrane, was then excised from the costal margin to the inguinal area and from one flank to the other. The entire tissue specimen was homogenized after addition of at least 20 ml of distilled water with a Polytron homogenizer. The homogenate was sonicated for 60 seconds at a maximum setting with a Biosonic IV probe sonicator and filtered through a YMT ultrafiltration membrane (Amicon Corp, product #4104). All the samples were kept at -20° C. until assayed by HPLC. The RSTRIP program was used to perform the curve fitting. AUC was determined by linear trapezoidal rule up to the last measured concentration and extrapolated to infinity.

in vivo [9] = conditions: mouse, ip, 10 mg/kg
Experimental: (§6) The in vivo studies were done on male BDF1 mice weighing 18-25 g. […] The Emit^R assay is a homogeneous enzyme immunoassay technique based on the competition between drug present in the sample and drug labeled with the enzyme glucose-6-phosphate dehydrogenase for antibody binding sites. The limit of sensitivity was 0.02 μM.
(§7) Five μl of the peritoneal fluid samples were collected into a glass capillary pipette and diluted into 140 μl of 0.9% NaCl solution. […] Fifty μl of methanol was added to the pellet and vortexed to break multivesicular particles. The peritoneal cavities were then washed out thoroughly with 2-3 ml of 0.9% NaCl solution thrice. All samples were kept frozen at -20° C. until assayed by HPLC. Extraction of the samples was not necessary, no internal standard was used and there were no interfering peaks. RSTRIP computer program was used to analyze pharmacokinetic data. The area under the curve was determined by linear trapezoidal rule up to the last measured concentration and extrapolated to infinity.

[10] = Subcutaneous pharmacokinetics in BDF1 mice; conditions: mouse, 10 mg/kg sc
Experimental: as §4, §5

[11] = Intraperitoneal pharmacokinetics in BDF1 mice; conditions: mouse, 10 mg/kg ip
Experimental: as §6, §7

CN(Cc1cnc2nc(N)nc(N)c2n1)c1ccc(C(=O)N[C@@H](CCC(=O)O)C(=O)O)cc1 [unencapsulated methotrexate, methotrexate]
Amount t1/2 (total amount of drug within CNS) (in vivo [1]): 43 min
concentration at 4 h (in vivo [1]): 0.11 ± 0.02 µM
half-life (in vivo [1]; Amount t1/2 (total amount of drug within CNS)): 43.2 min
half-life (in vivo [1]; Conc. t1/2 α (initial half-life, CSF)): 34.6 min
half-life (in vivo [1]; Conc. t1/2 β (terminal half-life, CSF)): 432 min
maximum efficacy (ILS max) (L1210 leukemia [2]): 183%
LD50 (in vivo [3]): 2650 mg/kg
maximum efficacy (ILS max) (L1210 leukemia [4]): 100%
LD50 [5]: 2760 mg/kg
MCC [6]: 500 nM
absorption after im or sc administration (in words) ([7]; im or sc): much more predictable and complete
serum concentrations after im or sc versus oral dose (in words) ([7]; im or sc): higher serum concentrations than after an oral dose
absorption rate after oral administration (in words) ([7]; patients, oral): highly variable among patients and appears to be saturable
AUC(0-inf) (in vivo [8]; plasma): 17.3 µM·h
Cmax (in vivo [8]; plasma): 17.4 ± 5.2 µM
Tmax (in vivo [8]; plasma): 15 min
half-life (in vivo [8]; plasma): 31.8 min
half-life (in vivo [8]; skin at injection site): 9.6 min
AUC(0-inf) (in vivo [9]; peritoneal fluid): 233 µM·h
Cmax (in vivo [9]; peritoneal fluid): 430 ± 13 µM
half-life (in vivo [9]; peritoneal fluid): 32.4 min
AUC(0-inf) (in vivo [9]; plasma): 11.2 µM·h
half-life (in vivo [9]; plasma): 54 min
Amount t1/2 (total amount of methotrexate in skin) ([10]; injection site): 9.6 min
Conc. t1/2 (plasma half-life) ([10]; plasma): 31.8 min
Peritoneal Amount t1/2 ([11]; total amount for MVL-CD-MTX): 27 min
Peritoneal Conc. t1/2 ([11]; unencapsulated drug or complex, or free methotrexate after MVL-CD-MTX): 32.4 min
